In PubChem BioAssay AID330 (DTP/NCI, 2004):
“And” between values parts separate entries of the source, which are not always exact repeats. Identical values can stand only once. Inconclusive results and toxic doses are left out. Square brackets hold non-standard residues; d marks the D form. Peptide text beside a SMILES is read from it. Nva = CCC[CH](N)C(=O)O

Tested on: P388 leukemia ip, CD2F1 mice, survival T/C
Experiment: NCI In Vivo Anticancer Drug Screen. Data for tumor model P388 Leukemia (intraperitoneal) in CD2F1 (CDF1) mice
Details: endpoint: median survival time, higher = longer survival
In short: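 Mice carrying the transplanted tumor received test compound or vehicle. Survival was recorded in each group, and the value is the treated-group measurement divided by that of the vehicle-treated control group.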

[1] = dose: 60.0 mg/kg/injection, schedule: Q01DX005 (ip), vehicle: saline with Tween-80
[2] = dose: 120.0 mg/kg/injection, schedule: Q01DX005 (ip), vehicle: saline with Tween-80
[3] = dose: 50.0 mg/kg/injection, schedule: Q01DX009 (ip), vehicle: Klucel (hydroxypropylcellulose) (HPC)
[4] = dose: 50.0 mg/kg/injection, schedule: Q01DX005 (ip), vehicle: Klucel (hydroxypropylcellulose) (HPC)
[5] = dose: 100.0 mg/kg/injection, schedule: Q01DX005 (ip), vehicle: Klucel (hydroxypropylcellulose) (HPC)
[6] = dose: 200.0 mg/kg/injection, schedule: Q01DX005 (ip), vehicle: Klucel (hydroxypropylcellulose) (HPC)
[7] = dose: 25.0 mg/kg/injection, schedule: Q01DX009 (ip), vehicle: saline with Tween-80
[8] = dose: 50.0 mg/kg/injection, schedule: Q01DX009 (ip), vehicle: saline with Tween-80
[9] = dose: 50.0 mg/kg/injection, schedule: Q01DX009 (ip), vehicle: saline
[10] = dose: 240.0 mg/kg/injection, schedule: Q01DX005 (ip), vehicle: saline with Tween-80
[11] = dose: 100.0 mg/kg/injection, schedule: Q04DX002 (ip), vehicle: saline with Tween-80

Compound: O=S(Cc1ccc2c(c1)OCO2)c1ccccc1 (configuration not stated)
- T/C (dose: 100.0 mg/kg/injection, schedule: Q01DX001 (ip), vehicle: Klucel (hydroxypropylcellulose) (HPC)): 101 % of control
- T/C (dose: 200.0 mg/kg/injection, schedule: Q01DX001 (ip), vehicle: Klucel (hydroxypropylcellulose) (HPC)): 100 % of control
- T/C (dose: 400.0 mg/kg/injection, schedule: Q01DX001 (ip), vehicle: Klucel (hydroxypropylcellulose) (HPC)): 100 % of control

Compound: CN(C)CCOC(=O)Nc1cc(Cl)cc(Cl)c1
- T/C [1]: 103 % of control
- T/C [2]: 103 % of control

Compound: O=C1C(O)=C(O)C(=O)c2ccccc21
- T/C [3]: 90 % of control

Compound: O=C1C=CC(=Nc2cc(Cl)c(O)c(Cl)c2)C=C1
- T/C (dose: 50.0 mg/kg/injection, schedule: Q01DX005 (ip), vehicle: saline with Tween-80): 96 % of control
- T/C (dose: 100.0 mg/kg/injection, schedule: Q01DX005 (ip), vehicle: saline with Tween-80): 92 % of control
- T/C (dose: 200.0 mg/kg/injection, schedule: Q01DX005 (ip), vehicle: saline with Tween-80): 88 % of control

Compound: O=C(Nc1ccccc1)/C(N=Nc1ccccc1Cl)=N\Nc1cc(S(=O)(=O)O)ccc1Cl
- T/C [4]: 103 % of control
- T/C [5]: 102 % of control
- T/C [6]: 107 % of control

Compound: S=C(S)NN1CCCC1
- T/C (dose: 12.5 mg/kg/injection, schedule: Q01DX009 (ip), vehicle: saline with Tween-80): 100 % of control
- T/C [7]: 100 % of control
- T/C [8]: 100 % of control

Compound: COC(=O)N1C2CCCCC2=NN(c2ccccc2)N1C(=O)OC (configuration not stated)
- T/C (dose: 25.0 mg/kg/injection, schedule: Q01DX005 (ip), vehicle: Klucel (hydroxypropylcellulose) (HPC)): 100 % of control
- T/C [4]: 98 % of control
- T/C [5]: 93 % of control
- T/C [6]: 91 % of control

Compound: CC(C)(C)C(=O)Nc1ccc(S(=O)(=O)Nc2ccc(N)cc2O)cc1
- T/C [3]: 112 % of control
- T/C (dose: 100.0 mg/kg/injection, schedule: Q01DX009 (ip), vehicle: Klucel (hydroxypropylcellulose) (HPC)): 97 % of control
- T/C (dose: 200.0 mg/kg/injection, schedule: Q01DX009 (ip), vehicle: Klucel (hydroxypropylcellulose) (HPC)): 115 % of control

Compound: CCCCCCC[CH2][Sn]([CH2]CCCCCCC)([NH]S(=O)(=O)c1ccc(C)cc1)[NH]S(=O)(=O)c1ccc(C)cc1
- T/C (dose: 25.0 mg/kg/injection, schedule: Q04DX003 (ip), vehicle: saline sonified): 100 % of control
- T/C (dose: 50.0 mg/kg/injection, schedule: Q04DX003 (ip), vehicle: saline sonified): 122 % of control
- T/C (dose: 100.0 mg/kg/injection, schedule: Q04DX003 (ip), vehicle: saline sonified): 100 % of control

Compound: COc1cccc2c1C(=O)c1c(O)c3c(c(O)c1C2=O)C[C@H](O)C[C@@H]3OC1CC(N)C(O)C(C)O1 (some centres not stated)
- T/C (dose: 0.5 mg/kg/injection, schedule: Q04DX003 (ip), vehicle: saline): 105 % of control
- T/C (dose: 1.0 mg/kg/injection, schedule: Q04DX003 (ip), vehicle: saline): 114 % of control
- T/C (dose: 1.56 mg/kg/injection, schedule: Q01DX009 (ip), vehicle: water): 155 % of control and 161 % of control
- T/C (dose: 2.0 mg/kg/injection, schedule: Q04DX003 (ip), vehicle: saline): 107 % of control
- T/C (dose: 3.13 mg/kg/injection, schedule: Q01DX009 (ip), vehicle: water): 174 % of control
- T/C (dose: 4.0 mg/kg/injection, schedule: Q04DX003 (ip), vehicle: saline): 117 % of control
- T/C (dose: 4.7 mg/kg/injection, schedule: Q04DX003 (ip), vehicle: water): 109 % of control
- T/C (dose: 6.25 mg/kg/injection, schedule: Q01DX009 (ip), vehicle: water): 180 % of control and 209 % of control
- T/C (dose: 8.0 mg/kg/injection, schedule: Q04DX003 (ip), vehicle: saline): 108 % of control
- T/C (dose: 12.5 mg/kg/injection, schedule: Q01DX009 (ip), vehicle: water): 228 % of control and 236 % of control
- T/C (dose: 64.0 mg/kg/injection, schedule: Q04DX003 (ip), vehicle: saline): 169 % of control
- T/C (dose: 75.0 mg/kg/injection, schedule: Q04DX003 (ip), vehicle: water): 181 % of control
- T/C (dose: 113.0 mg/kg/injection, schedule: Q04DX003 (ip), vehicle: water): 116 % of control
- T/C (dose: 128.0 mg/kg/injection, schedule: Q04DX003 (ip), vehicle: saline): 100 % of control

Compound: N=CC1=C(O)CCOC1=O
- T/C (dose: 100.0 mg/kg/injection, schedule: Q01DX001 (ip), vehicle: saline): 99 % of control
- T/C (dose: 200.0 mg/kg/injection, schedule: Q01DX001 (ip), vehicle: saline): 99 % of control
- T/C (dose: 400.0 mg/kg/injection, schedule: Q01DX001 (ip), vehicle: saline): 100 % of control

Compound: C/C(=C\C(=O)c1ccccc1)Nc1ccccc1Cl
- T/C (dose: 12.5 mg/kg/injection, schedule: Q01DX009 (ip), vehicle: saline): 100 % of control
- T/C (dose: 25.0 mg/kg/injection, schedule: Q01DX009 (ip), vehicle: saline): 102 % of control
- T/C [9]: 89 % of control

Compound: O=C1OC(C2OC(=O)C(=O)C2C(=O)c2cccc([N+](=O)[O-])c2)C(C(=O)c2cccc([N+](=O)[O-])c2)C1=O (configuration not stated)
- T/C [1]: 100 % of control
- T/C [2]: 105 % of control
- T/C [10]: 100 % of control

Compound: CCCC(N)C(=O)NC(C(=O)O)C(C)C (configuration not stated) (H-[Nva]-Val-OH; configuration not given here)
- T/C [9]: 100 % of control
- T/C (dose: 100.0 mg/kg/injection, schedule: Q01DX009 (ip), vehicle: saline): 103 % of control
- T/C (dose: 200.0 mg/kg/injection, schedule: Q01DX009 (ip), vehicle: saline): 100 % of control

Compound: Cc1cc2nc(CC(O)(C(F)(F)F)C(F)(F)F)oc2cc1C
- T/C (dose: 100.0 mg/kg/injection, schedule: Q04DX003 (ip), vehicle: saline with Tween-80): 95 % of control
- T/C (dose: 200.0 mg/kg/injection, schedule: Q04DX003 (ip), vehicle: saline with Tween-80): 95 % of control
- T/C (dose: 400.0 mg/kg/injection, schedule: Q04DX003 (ip), vehicle: saline with Tween-80): 100 % of control

Compound: COc1ccc2c(c1)CCC1=C2N=CN2CCN=C12
- T/C [11]: 102 % of control

Compound: CCCN1C(C)=C(C#N)C2(C(=O)Nc3ccccc32)C(C#N)=C1C
- T/C [4]: 99 % of control
- T/C [5]: 102 % of control
- T/C [6]: 102 % of control

Compound: C1=CC2OC2CCCCCCCC1 (mixture of isomers)
- T/C [7]: 106 % of control
- T/C [8]: 107 % of control
- T/C (dose: 100.0 mg/kg/injection, schedule: Q01DX009 (ip), vehicle: saline with Tween-80): 109 % of control

Compound: COc1ccc([N+]([O-])=NC#N)cc1
- T/C (dose: 12.5 mg/kg/injection, schedule: Q01DX009 (ip), vehicle: Klucel (hydroxypropylcellulose) (HPC)): 95 % of control
- T/C (dose: 25.0 mg/kg/injection, schedule: Q01DX009 (ip), vehicle: Klucel (hydroxypropylcellulose) (HPC)): 98 % of control
- T/C [3]: 109 % of control
- T/C (dose: 50.0 mg/kg/injection, schedule: Q04DX003 (ip), vehicle: Klucel (hydroxypropylcellulose) (HPC)): 99 % of control
- T/C (dose: 100.0 mg/kg/injection, schedule: Q04DX003 (ip), vehicle: Klucel (hydroxypropylcellulose) (HPC)): 100 % of control

Compound: ClC1=C(Cl)C2(Cl)C3C(Cl)C(Cl)CC3C1(Cl)C2(Cl)Cl (configuration not stated)
- T/C (dose: 3.12 mg/kg/injection, schedule: Q01DX009 (ip), vehicle: saline + Tween-80 + alcohol): 100 % of control and 101 % of control
- T/C (dose: 6.25 mg/kg/injection, schedule: Q01DX009 (ip), vehicle: saline + Tween-80 + alcohol): 107 % of control and 112 % of control
- T/C (dose: 12.5 mg/kg/injection, schedule: Q01DX009 (ip), vehicle: saline + Tween-80 + alcohol): 114 % of control and 87 % of control
- T/C (dose: 25.0 mg/kg/injection, schedule: Q01DX009 (ip), vehicle: other): 110 % of control and 89 % of control
- T/C (dose: 25.0 mg/kg/injection, schedule: Q01DX009 (ip), vehicle: saline + Tween-80 + alcohol): 103 % of control and 96 % of control
- T/C (dose: 50.0 mg/kg/injection, schedule: Q01DX009 (ip), vehicle: other): 110 % of control and 86 % of control and 98 % of control
- T/C (dose: 100.0 mg/kg/injection, schedule: Q01DX009 (ip), vehicle: other): 108 % of control and 93 % of control
- T/C (dose: 200.0 mg/kg/injection, schedule: Q01DX009 (ip), vehicle: other): 90 % of control

Compound: CC12C(=O)NC(c3ccccc3)(c3ccccc31)C1C(=O)N(C(N)=O)C(=O)C12 (configuration not stated)
- T/C [1]: 94 % of control
- T/C [2]: 89 % of control
- T/C [10]: 93 % of control

Compound: CCCCCCCCCCCCCCCCOc1ccc2c(c1OCCCCCCCCCCCCCCCC)OC(C)(C)C=C2C
- T/C [11]: 88 % of control
- T/C (dose: 200.0 mg/kg/injection, schedule: Q04DX002 (ip), vehicle: saline with Tween-80): 86 % of control

Compound: CC[N+]12CC=C(CO)C1C(O)CC2 (configuration not stated)
- T/C (dose: 60.0 mg/kg/injection, schedule: Q01DX005 (ip), vehicle: saline): 97 % of control
- T/C (dose: 120.0 mg/kg/injection, schedule: Q01DX005 (ip), vehicle: saline): 95 % of control
- T/C (dose: 240.0 mg/kg/injection, schedule: Q01DX005 (ip), vehicle: saline): 106 % of control
